Experiments:
ORP150 = assay: ER stress inducing molecule expression in RIN-5F cells, western blot, ORP150; type: cell-based, rat; settings: TM-2002 200 μM, 50 μM and tunicamycin co-added
Procedure: (§1) Rat pancreatic β cell line (RIN-5F) was seeded in 6 well culture plate to 1.0×10^5 cells/well, and after 24 hours, TM-2002 in DMSO (200 mM, 50 mM) were added to be final concentration 200 μM, 50 μM. After another 1 hour, 0.2 μl of tunicamycin (Sigma) in methanol(1 mg/ml) was added. After culturing 8 hours, the cells were washed 2 ml of PBS(+) twice, and the cells were dissolved in 100 μl of lysate (50 mM Tris-HCl (pH 7.5), 150 mM NaCl, 100 mM NaF, 100 mM sodium phosphate (pH 7.4), 2 mM Na3VO4, 0.1% protease inhibitor cocktail (Sigma), 1% Triton X-100). To remove the insoluble fraction of this lysate, centrifuged at 12,000×g for 10 minutes and obtained the supernatant to give cell extract. The extract was quantified its protein concentration using DC protein assay kit (Bio Rad), and each samples (1 μg) was electrophoresed by SDS-PAGE and transferred to PVDF membrane. The membrane was blocked with 5% skimmed milk/0.1% Tween20-TBS for 1 hour at room temperature, and reacted with anti-ORP150 antibody in 5% skimmed milk/0.1% Tween20-TBS (2000 folds: specific antibody), anti-GRP78 antibody (Santa Cruz) in 5% skimmed milk/0.1% Tween20-TBS (100 folds) and anti-actin antibody (Sigma) in 5% skimmed milk/0.1% Tween20-TBS (200 folds) for 2 hours. […] The detected signal was analyzed by Lane analyzer (ATTO) and calculated the signal strength. […]

GRP78 = assay: ER stress inducing molecule expression in RIN-5F cells, western blot, GRP78; type: cell-based, rat; settings: TM-2002 200 μM, 50 μM and tunicamycin co-added
Procedure: as §1

Compound: Cc1ncc2c(c1O)C(c1c(C)nn(-c3ccccc3)c1O)OC2 (centres unmarked) [compound 68, 1-(5-hydroxy-3-methyl-1-phenyl-1H-pyrazol-4-yl)-6-methyl-1,3-dihydro-furo[3,4-c]pyridin-7-ol]
- hyperexpression of ORP150 (ORP150): suppressed
- hyperexpression of GRP78 (GRP78): suppressed

From patent US7645882B2, “Inhibitor of protein modification products formation” (priority 2003, dated 2010)
